Entries after “also recorded” stand apart in the source; their conditions may differ.

We go through 1 molecule from US10675267B2, “Methods for detection and eradication of myeloid leukemia stem cells” (priority 2015, dated 2020).

In the assay the test system is pFlare splicing reporter (MAPT exon 10) in HEK293 cells. Put plainly: Dual fluorescence (RFP/GFP) alternative splicing reporter (pFlare) assay. The format is cell-based. Here is the method: For evaluation of in vitro splicing activity using a two-color fluorescent splicing reporter system, HEK293T cells (mycoplasma-free authenticated cell lines obtained from ATCC) were grown in complete media (DMEM+10% FBS) and transfected with a series of fluorescent protein-expressing plasmids. Vector controls include pFlare5A, which expresses solely GFP, and pFlare5G, which expresses maximal RFP. The pFlare reporter contains microtubule-associated protein tau (MAPT) exon 10 as an indicator of alternative splicing. Under physiological conditions, the pFlare conditional reporter vector allows in-frame expression of GFP but not RFP. In the presence of splicing inhibitors, exon skipping favors production of RFP over GFP. […] Fluorescence was evaluated on a Leica fluorescent microscope (Sanford Consortium Stem Cell Core facility) and then analyzed by flow cytometry on a Miltenyi MACSQUANT® to assess transfection efficiency (ranging from over 70% at 24 hrs after transfection to approximately 20% at 48 hrs after transfection) and mean fluorescence intensity (MFI) of RFP and GFP in positive cells. In HEK293 cells transiently transfected with control GFP or RFP vectors, or the pFlare splicing reporter vector, the dynamic range of the assay as measured by MFI of GFP and RFP 48 hours after transfection ranged from 0.41-1.69 for RFP/GFP ratios (FIG. 6A). […]

As to `CC[C@H](OC)[C@@H](C)[C@H]1O[C@@H]1[C@@H](O)[C@H](C)/C=C/C=C(\C)[C@H]1OC(=O)C[C@H](O)CC[C@@](C)(O)[C@@H](OC(C)=O)/C=C/[C@@H]1C` (stereo in doubt) [Formula 17S-FD-895, 17S-FD-895], the RFP/GFP ratios entry (HEK293 cells, 0.01-10 μM, 24 hrs, flow cytometry MFI) is on record as “dose-dependent increase”. Under “reporter-transfected HEK293 cells, 1-10 μM, live-cell / time-lapse”, the “RFP fluorescence by confocal microscopy” value is “increase in RFP fluorescence; also recorded: increased RFP/GFP expression; also recorded: increased RFP fluorescence”.
